Test results published in ChEMBL document CHEMBL5233262, “Anti-inflammatory activity of naturally occuring diarylheptanoids - A review” (Bioorg Med Chem, 2021).
≈ marks a conversion by molar mass, not a printed value. One block for each compound: values may come before it.

Columns and labels:
[1] = molecular target: T1, Polyunsaturated fatty acid 5-lipoxygenase (Homo sapiens, UniProt P09917); assay: Inhibition of 5-LOX in human neutrophils assessed as reduction in 5-HETE formation preincubated for 5 mins followed by arachidonic acid and A23187 addition and measured after 5 mins by RP-HPLC analysis; assay type: cell-based, Neutrophil
T1 sequence (P09917 whole entry): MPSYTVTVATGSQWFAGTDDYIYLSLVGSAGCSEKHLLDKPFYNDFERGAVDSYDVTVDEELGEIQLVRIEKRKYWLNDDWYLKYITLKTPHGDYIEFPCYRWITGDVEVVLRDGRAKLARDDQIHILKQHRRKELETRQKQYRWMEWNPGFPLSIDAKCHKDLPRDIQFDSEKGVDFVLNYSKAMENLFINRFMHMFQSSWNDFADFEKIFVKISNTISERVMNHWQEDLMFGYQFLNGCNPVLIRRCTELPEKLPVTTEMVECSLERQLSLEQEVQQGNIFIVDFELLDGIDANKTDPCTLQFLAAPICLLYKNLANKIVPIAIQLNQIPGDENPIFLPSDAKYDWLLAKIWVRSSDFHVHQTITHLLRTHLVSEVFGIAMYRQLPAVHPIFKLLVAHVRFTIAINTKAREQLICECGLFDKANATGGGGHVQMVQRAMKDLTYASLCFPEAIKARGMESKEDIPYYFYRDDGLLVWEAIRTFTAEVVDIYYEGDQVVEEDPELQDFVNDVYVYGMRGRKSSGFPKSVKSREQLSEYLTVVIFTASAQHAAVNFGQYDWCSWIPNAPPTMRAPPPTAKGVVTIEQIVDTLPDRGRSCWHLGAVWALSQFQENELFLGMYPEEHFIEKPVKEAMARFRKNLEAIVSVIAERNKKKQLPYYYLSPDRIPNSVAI

HUVEC [2] = assay: Antiinflammatory activity in human HUVEC cells assessed as inhibition of IL-1beta induced ICAM-1 expression at 1 to 50 uM preincubated for 2 hrs followed by IL-1beta stimulation and measured after 8 hrs by ELISA; assay type: functional; conditions: dose 1-50 µM, time 10 hrs
Zingiber officinale = assay: Inhibition of prostaglandin biosynthesis in ginger; assay type: functional, organism-based
HUVEC [3] = assay: Antiinflammatory activity in human HUVEC cells assessed as inhibition of TNFalpha-induced VCAM-1 expression at 1 to 50 uM preincubated for 2 hrs followed by TNFalpha stimulation and measured after 8 hrs by ELISA; assay type: functional; conditions: dose 1-50 µM, time 10 hrs
Mus musculus [4] = assay: Antiinflammatory activity in ICR mouse model of TPA-induced ear edema assessed as inhibition of ear inflammation at 20 uM,TOP for 30 mins followed by TPA addition and measured after 5 hrs; assay type: functional; conditions: 5.5 h, time 330 min
HUVEC [5] = assay: Antiinflammatory activity in human HUVEC cells assessed as inhibition of IL-1beta induced VCAM-1 expression at 1 to 50 uM preincubated for 2 hrs followed by IL-1beta stimulation and measured after 8 hrs by ELISA; assay type: functional; conditions: dose 1-50 µM, time 10 hrs
HUVEC [6] = assay: Antiinflammatory activity in human HUVEC cells assessed as inhibition of TNFalpha-induced ICAM-1 expression at 1 to 50 uM preincubated for 2 hrs followed by TNFalpha stimulation and measured after 8 hrs by ELISA; assay type: functional; conditions: dose 1-50 µM, time 10 hrs
[7] = Inhibition of COX in bovine seminal vesicle assessed as reduction in PGE2 production using arachidonic acid as substrate; assay type: tissue-based, Bos taurus
[8] = molecular target: Nuclear factor NF-kappa-B complex (Homo sapiens) (UniProt Q00653+P19838+Q04206); assay: Inhibition of human NF-kappaB p65 binding to DNA in LPS-stimulated human keratinocytes at […] for 30 mins by ELISA; assay type: cell-based; conditions: Keratinocyte, dose 7.5 µM
[9] = Antioxidant activity assessed as nitroblue tetrazolium superoxide radical scavenging activity incubated for 10 mins by spectrophotometric analysis; assay type: functional
[10] = Antiinflammatory activity in human HEK001 cells assessed as inhibition of TNF-alpha induced IL-8 production at […] incubated for 24 hrs by ELISA; assay type: functional; conditions: dose 7.5 µM
Mus musculus [11] = assay: Antiinflammatory activity in Dermatophagoides farina induced atopic dermatitis like skin lesions NC/Nga mouse model assessed as inhibition of COX-2 expression level at 0.1 %,ip twice a week for 4 weeks by RT-PCR analysis; assay type: functional
[12] = Antiinflammatory activity in human Keratinocytes assessed as inhibition of LPS induced IL-1beta production at […] incubated for 24 hrs by ELISA; assay type: functional; conditions: Keratinocyte, dose 7.5 µM
[13] = Antiinflammatory activity in mouse BMDM cells assessed as inhibition of LPS induced IL-1beta secretion at 5 uM; assay type: functional
RAW264.7 [14] = assay: Antiinflammatory activity in mouse RAW264.7 cells assessed as inhibition of IFN-gamma and LPS-induced NO production incubated for 24 hrs by Griess assay; assay type: functional, cell-based; conditions: RAW264.7, 24 h
[15] = Antiinflammatory activity in human HEK001 cells assessed as inhibition of LPS induced IL-8 production at […] incubated for 24 hrs by ELISA; assay type: functional; conditions: dose 7.5 µM
RAW264.7 [16] = assay: Antiinflammatory activity in mouse RAW264.7 cells assessed as inhibition of LPS-induced TNFalpha production preincubated for 1 hr followed by LPS stimulation and measured after 18 hrs by immunoassay; assay type: functional, cell-based
Mus musculus [17] = assay: Antiinflammatory activity in Dermatophagoides farina induced atopic dermatitis like skin lesions NC/Nga mouse model assessed as inhibition of IL-5 level at 1 %,ip twice a week for 4 weeks by ELISA; assay type: functional
[18] = Antiinflammatory activity in human HEK001 cells assessed as inhibition of TNF-alpha induced PGE2 production at […] incubated for 24 hrs by ELISA; assay type: functional; conditions: dose 7.5 µM
[19] = Antiinflammatory activity in human HEK001 cells assessed as inhibition of TNF-alpha induced NO production incubated for 24 hrs at […] by Griess reagent based analysis; assay type: functional; conditions: dose 7.5 µM
[20] = Antiinflammatory activity in human HEK001 cells assessed as inhibition of LPS induced CCL17 production at […] incubated for 24 hrs by ELISA; assay type: functional; conditions: dose 7.5 µM
Mus musculus [21] = assay: Antiinflammatory activity in Dermatophagoides farina induced atopic dermatitis like skin lesions NC/Nga mouse model assessed as inhibition of IL-5 level at 0.1 %,ip twice a week for 4 weeks by ELISA; assay type: functional
[22] = Antiinflammatory activity in human Keratinocytes assessed as inhibition of LPS induced ERK production at […] incubated for 24 hrs by ELISA; assay type: functional; conditions: Keratinocyte, dose 7.5 µM
RAW264.7 [23] = assay: Antiinflammatory activity in mouse RAW264.7 cells assessed as inhibition of LPS-induced NO production preincubated for 0.5 hrs followed by LPS stimulation and measured after 24 hrs by Griess reagent based analysis; assay type: functional, cell-based
Mus musculus [24] = assay: Antiinflammatory activity in Dermatophagoides farina induced atopic dermatitis like skin lesions NC/Nga mouse model assessed as inhibition of IL-4 level at 0.1 %,ip twice a week for 4 weeks by ELISA; assay type: functional
RAW264.7 [25] = assay: Antiinflammatory activity in mouse RAW264.7 cells assessed as inhibition of LPS-induced NO production incubated for 20 hrs by Griess method; assay type: functional, cell-based; conditions: RAW264.7, 20 h
[26] = Cytotoxicity against mouse RAW264.7 cells assessed as reduction in cell viability by MTT assay; assay type: toxicity, cell-based
Mus musculus [27] = assay: Antiinflammatory activity in Dermatophagoides farina induced atopic dermatitis like skin lesions NC/Nga mouse model assessed as inhibition of iNOS expression level at 1 %,ip twice a week for 4 weeks by RT-PCR analysis; assay type: functional
RAW264.7 [28] = assay: Antiinflammatory activity against mouse RAW264.7 cells assessed as inhibition of IFN-gamma and LPS-induced COX2 production preincubated for 2 hrs followed by IFN-gamma and LPS stimulation and measured after 16 hrs by spectrophotometric analysis; assay type: functional, cell-based
[29] = Antiinflammatory activity in human HEK001 cells assessed as inhibition of LPS induced IL-1beta production at […] incubated for 24 hrs by ELISA; assay type: functional; conditions: dose 7.5 µM
RAW264.7 [30] = assay: Antiinflammatory activity in mouse RAW264.7 cells assessed as inhibition of LPS-induced NO production preincubated for 1 hrs followed by LPS stimulation and measured after 24 hrs by Griess reagent based analysis; assay type: functional, cell-based
RAW264.7 [31] = assay: Antiinflammatory activity in mouse RAW264.7 cells assessed as inhibition of LPS-induced NF-kappaB activation incubated for 24 hrs by SEAP microplate reader analysis; assay type: functional, cell-based; conditions: RAW264.7, 24 h
Mus musculus [32] = assay: Antiinflammatory activity in Dermatophagoides farina induced atopic dermatitis like skin lesions NC/Nga mouse model assessed as inhibition of COX-2 expression level at 1 %,ip twice a week for 4 weeks by RT-PCR analysis; assay type: functional
RAW264.7 [33] = assay: Antiinflammatory activity in mouse RAW264.7 cells assessed as inhibition of LPS-induced NO production incubated for 24 hrs by Griess method; assay type: functional, cell-based; conditions: RAW264.7, 24 h
[34] = Antioxidant activity assessed as nitroblue tetrazolium superoxide radical scavenging activity by spectrophotometric analysis; assay type: functional
Mus musculus [35] = assay: Antiinflammatory activity in Dermatophagoides farina induced atopic dermatitis like skin lesions NC/Nga mouse model assessed as inhibition of IL-4 level at 1 %,ip twice a week for 4 weeks by ELISA; assay type: functional
[36] = Antioxidant activity assessed as DPPH radical scavenging activity incubated for 30 mins by spectrophotometric analysis; assay type: functional
[37] = Antiinflammatory activity in human HEK001 cells assessed as inhibition of TNF-alpha induced CCL7 production at […] incubated for 24 hrs by ELISA; assay type: functional; conditions: dose 7.5 µM
Mus musculus [38] = assay: Antiinflammatory activity in Dermatophagoides farina induced atopic dermatitis like skin lesions NC/Nga mouse model assessed as inhibition of iNOS expression level at 0.1 %,ip twice a week for 4 weeks by RT-PCR analysis; assay type: functional
[39] = Antiinflammatory activity in human Keratinocytes assessed as inhibition of LPS induced CCL17 production at […] incubated for 24 hrs by ELISA; assay type: functional; conditions: Keratinocyte, dose 7.5 µM
RAW264.7 [40] = assay: Antiinflammatory activity in mouse RAW264.7 cells assessed as inhibition of LPS-induced NO production incubated for 24 hrs by Griess reagent based analysis; assay type: functional, cell-based; conditions: RAW264.7, 24 h

Nuclear factor NF-kappa-B complex (Homo sapiens), sequence (P19838 whole entry, looked up): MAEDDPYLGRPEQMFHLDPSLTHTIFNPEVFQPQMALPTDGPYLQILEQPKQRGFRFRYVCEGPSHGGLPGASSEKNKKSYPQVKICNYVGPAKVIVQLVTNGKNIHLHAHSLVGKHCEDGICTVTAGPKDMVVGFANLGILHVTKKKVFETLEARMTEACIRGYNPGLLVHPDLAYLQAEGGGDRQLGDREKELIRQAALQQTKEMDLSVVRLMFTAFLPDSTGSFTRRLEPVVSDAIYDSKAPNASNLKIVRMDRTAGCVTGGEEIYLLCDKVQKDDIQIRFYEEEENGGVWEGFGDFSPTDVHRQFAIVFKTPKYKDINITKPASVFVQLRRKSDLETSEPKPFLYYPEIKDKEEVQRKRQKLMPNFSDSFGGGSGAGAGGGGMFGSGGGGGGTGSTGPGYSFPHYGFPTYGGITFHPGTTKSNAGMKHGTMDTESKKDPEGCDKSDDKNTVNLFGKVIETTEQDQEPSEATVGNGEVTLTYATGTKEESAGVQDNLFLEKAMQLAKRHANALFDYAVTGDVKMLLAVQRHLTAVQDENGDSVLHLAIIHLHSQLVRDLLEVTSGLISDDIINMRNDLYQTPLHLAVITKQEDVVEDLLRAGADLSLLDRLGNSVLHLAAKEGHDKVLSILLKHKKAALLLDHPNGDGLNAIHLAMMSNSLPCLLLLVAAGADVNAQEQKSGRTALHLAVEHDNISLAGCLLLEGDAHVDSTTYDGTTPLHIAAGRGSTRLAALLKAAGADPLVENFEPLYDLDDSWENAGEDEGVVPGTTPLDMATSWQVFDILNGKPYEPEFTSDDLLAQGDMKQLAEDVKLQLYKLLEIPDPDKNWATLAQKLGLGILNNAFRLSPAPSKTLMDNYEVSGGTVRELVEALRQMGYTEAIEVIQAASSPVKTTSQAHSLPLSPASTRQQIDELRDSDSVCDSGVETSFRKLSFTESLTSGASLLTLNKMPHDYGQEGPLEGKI
Nuclear factor NF-kappa-B complex (Homo sapiens), sequence (Q00653 whole entry, looked up): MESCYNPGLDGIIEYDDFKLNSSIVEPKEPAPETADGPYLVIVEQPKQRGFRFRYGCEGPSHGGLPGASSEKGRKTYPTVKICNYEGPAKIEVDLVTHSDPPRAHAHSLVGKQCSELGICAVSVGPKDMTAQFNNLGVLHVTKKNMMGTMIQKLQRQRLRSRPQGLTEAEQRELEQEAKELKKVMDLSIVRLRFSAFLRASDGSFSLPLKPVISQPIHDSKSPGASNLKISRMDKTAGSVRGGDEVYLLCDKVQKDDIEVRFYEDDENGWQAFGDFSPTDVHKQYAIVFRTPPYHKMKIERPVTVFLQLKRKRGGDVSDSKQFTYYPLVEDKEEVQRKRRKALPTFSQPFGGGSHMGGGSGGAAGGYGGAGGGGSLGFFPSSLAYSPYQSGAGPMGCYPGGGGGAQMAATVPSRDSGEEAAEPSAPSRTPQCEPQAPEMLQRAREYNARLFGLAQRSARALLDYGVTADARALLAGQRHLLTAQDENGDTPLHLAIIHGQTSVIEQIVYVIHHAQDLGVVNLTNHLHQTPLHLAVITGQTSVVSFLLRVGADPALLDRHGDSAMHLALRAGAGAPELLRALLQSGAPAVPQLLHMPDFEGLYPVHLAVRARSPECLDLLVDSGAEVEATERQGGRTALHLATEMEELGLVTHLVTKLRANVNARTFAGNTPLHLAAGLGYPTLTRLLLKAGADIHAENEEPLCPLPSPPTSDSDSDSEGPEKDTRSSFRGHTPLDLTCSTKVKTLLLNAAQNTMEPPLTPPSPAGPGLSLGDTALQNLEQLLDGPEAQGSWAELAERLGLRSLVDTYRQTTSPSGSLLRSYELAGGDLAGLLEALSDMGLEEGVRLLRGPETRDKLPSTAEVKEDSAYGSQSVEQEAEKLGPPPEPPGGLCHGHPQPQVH
Nuclear factor NF-kappa-B complex (Homo sapiens), sequence (Q04206 whole entry, looked up): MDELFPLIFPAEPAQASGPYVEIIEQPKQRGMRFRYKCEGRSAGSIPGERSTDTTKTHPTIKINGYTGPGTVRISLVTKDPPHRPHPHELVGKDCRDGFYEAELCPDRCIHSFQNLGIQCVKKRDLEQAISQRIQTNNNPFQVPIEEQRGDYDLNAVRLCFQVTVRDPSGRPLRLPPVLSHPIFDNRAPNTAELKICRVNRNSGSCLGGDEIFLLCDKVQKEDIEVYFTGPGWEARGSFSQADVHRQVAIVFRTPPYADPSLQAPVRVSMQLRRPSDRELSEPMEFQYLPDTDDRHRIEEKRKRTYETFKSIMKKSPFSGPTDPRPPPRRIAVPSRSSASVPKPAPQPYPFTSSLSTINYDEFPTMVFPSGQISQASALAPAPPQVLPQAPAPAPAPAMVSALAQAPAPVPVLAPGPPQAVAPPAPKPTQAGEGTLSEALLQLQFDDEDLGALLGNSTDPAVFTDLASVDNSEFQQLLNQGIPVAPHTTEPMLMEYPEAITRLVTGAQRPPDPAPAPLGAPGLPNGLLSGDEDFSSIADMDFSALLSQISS

IC50 [1]: 4 µM
IC50 (Zingiber officinale): 2.3 µM
IC50 [7]: 23 µM
Structure (SMILES): COc1cc(/C=C/C(=O)CCCCc2ccccc2)ccc1O
inhibition (INH) (HUVEC [2]): 0%
inhibition (INH) (HUVEC [3]): 0%
inhibition in vivo at 20 µM (Mus musculus [4]): 52%
inhibition (INH) (HUVEC [5]): 0%
inhibition (INH) (HUVEC [6]): 0%

inhibition [8]: 29.5%
IC50 [9]: 16.8 µM
IC50 (RAW264.7 [14]): 27.2 µg/mL (≈ 82.8 µM)
IC50 (RAW264.7 [16]): > 100 µM
IC50 (RAW264.7 [23]): 5 µM
IC50 (RAW264.7 [25]): 0.8 µM
IC50 (RAW264.7 [28]): 25 µg/mL (≈ 76.1 µM)
IC50 (RAW264.7 [30]): 5.8 µM
IC50 (RAW264.7 [31]): > 100 µM
IC50 (RAW264.7 [33]): 14.1 µM
IC50 [34]: 17.6 µM
IC50 [36]: 13.4 µM
IC50 (RAW264.7 [40]): > 100 µM
Structure (SMILES): O=C(/C=C/CCc1ccc(O)c(O)c1)CCc1ccc(O)c(O)c1 [DEHYDROHIRSUTANONOL]
inhibition at […] [10]: 33%
inhibition (INH) (Mus musculus [11]): 57%
inhibition at […] [12]: 39%
inhibition at 5 µM [13]: 73.4%
inhibition at […] [15]: 40%
inhibition (INH) (Mus musculus [17]): 74%
inhibition at […] [18]: 46%
inhibition at […] [19]: 37%
inhibition at […] [20]: 51%
inhibition (INH) (Mus musculus [21]): 37%
inhibition at […] [22]: 37%
inhibition (INH) (Mus musculus [24]): 51%
IC50 [26]: 39 µM
inhibition (INH) (Mus musculus [27]): 73%
inhibition at […] [29]: 39%
inhibition (INH) (Mus musculus [32]): 62%
inhibition (INH) (Mus musculus [35]): 60%
inhibition at […] [37]: 43%
inhibition (INH) (Mus musculus [38]): 61%
inhibition at […] [39]: 49%
